Values joined by “and” are separate entries in the source; they are usually repeats but may differ in a detail not shown here. Identical values can stand only once. Marks after values point to notes of the source that are not given here.
What was measured:
[1] = tested on: breast tumors in female FVB mice transgenic for HER-2/neu; assay: Antitumor activity on model of multiple breast tumors in HER-2/neu transgenic mice
Procedure: Two adenocarcinoma subtypes can be differentiated, in particular ER+, PR−, and ER−, PR− [2].
The study was carried out in female FVB mice transgenic for HER-2/neu by conventional category; the strain was obtained from the mouse bank Charles River Laboratories (Italy). At the beginning of the study the animals were 21-41 weeks old having weight of 25 to 30 g.
The study medicament was administered i.g. using a metal atraumatic gavage (with the procedure corresponds to the oral route of administration in clinical settings). The medicament was administered in a single daily dose (20 mg/kg of body weight) and 5-fold daily dose of 100 mg/kg of body weight. Ex tempore solutions of the medicament for administration were prepared in olive oil (refined olive oil supplemented with unrefined extra virgin olive oil available under Global Village “Clasico” trademark, lot L:183351116, expiry date 26 Apr. 2020, BAIEO, Spain). The administered volume was 0.1 ml per 10 g of a mouse body weight (0.2 ml of a ready-to-use formulation for a mouse of 20 g). The medicament administration was started 24 hours after the randomization. The duration of the administration course was 27-28 days.
This dose corresponds to a human daily dose of 20 mg/kg.
The control groups were given the olive oil (placebo).
The evaluation criteria included the clinical observation data, animals body weights, time of death (if applicable), tumor growth over time, pathomorphological examination data (verification of a neoplasm during autopsy, assessment of toxic effects by macroscopic presentation of changes in the internal organs).
The animals body weights were recorded before the first administration of the medicaments and then twice per week using a verified high-speed electronic laboratory balance Ohaus Scout Pro (USA) with a maximum load of 2000 g and a measurement step of 0.1 g.
Macroscopically detectable tumor nodes were measured in animals once per week during weighing process. Two linear dimensions including the largest one and the largest rectangular to the former were recorded for each of the nodes. The largest dimension was taken as a length (a) and the second dimension as a width (b) of the tumor nodes. A tumor volume was calculated by the expression as follows: […]
The efficacy of the therapy was assessed by recording a change in the average tumor volume, tumor growth inhibition (TGI), and the average total tumor volumes and its change over time in each of the mice.
The percent of tumor growth inhibition was calculated by the expression as follows:
TGI=(Vctrl−Vexp)/Vctrl×100(%),
where Vctrl is an average tumor volume in a control group, and Vexp is an average tumor volume in an experimental group.
The primary data from individual forms were transferred to Microsoft Excel 2007 books. The group arithmetic average (M) and standard deviation (m) were calculated for all quantitative data. The statistical analysis was performed using the statistical software GraphPad Prism 6.0. The differences between the groups were assessed using ANOVA regression analysis and the Fisher's exact test.

[2] = tested on: MDA-MB-231 line of cells of triple-negative breast cancer; assay: Cell growth inhibition, MDA-MB-231; type: cell-based; conditions: Homo sapiens
[3] = tested on: passaged human tumor of triple-negative breast cancer; assay: Animal models with passaged human triple-negative breast tumor; type: in vivo
[4] = Acute oral toxicity, OECD 423 test; type: in vivo; conditions: female, FVB transgenic for HER-2/neu, mouse, in vivo, po, oral (i.g.), OECD 423
[5] = tested on: FVB mice transgenic for HER-2/neu; assay: Acute oral toxicity, OECD 423 test; type: in vivo
[6] = 100 mg/kg i.g. daily, Day 27 vs Day −1

C[C@H]1Oc2cc(OS(N)(=O)=O)ccc2[C@H]2CC[C@]3(C)C(=O)CCC[C@H]3[C@H]21 [compound of formula (1), 3-O-sulphamoyloxy-7β-methyl-D-homo-6-oxa-8α-estra-1,3,5(10)-trien-17a-one]
TGI (average total tumor volume) ([1]; 100 mg/kg i.g. daily, Day 20): 10%
TGI (average tumor volume) ([1]; 100 mg/kg i.g. daily, Day 20): 17%
Average total volume of tumors in mice (M) ([1]; 100 mg/kg i.g. daily, Day 27): 1.74 cm^3
Average volume of tumors present at the beginning of the experiment (M) ([1]; 100 mg/kg i.g. daily, Day 27): 0.7 cm^3
Relative change of the average total volume of tumors to that of Day −1 (M) ([1]; 100 mg/kg i.g. daily, Day 27): 198** %
TGI (average total tumor volume) ([1]; 100 mg/kg i.g. daily, Day 27): 15%
TGI (average tumor volume) ([1]; 100 mg/kg i.g. daily, Day 27): 21%
% of change from baseline (average total tumor volume) [1, 6]: 102%
% of change to the initial value (average tumor volume) [1, 6]: 106%
Average total volume of tumors in mice (M) ([1]; 100 mg/kg i.g. daily, Day −1): 0.86 cm^3
Average volume of tumors present at the beginning of the experiment (M) ([1]; 100 mg/kg i.g. daily, Day −1): 0.34 cm^3
Relative change of the average total volume of tumors to that of Day −1 (M) ([1]; 100 mg/kg i.g. daily, Day −1): 0%
TGI (average total tumor volume) ([1]; 100 mg/kg i.g. daily, Day −1): −105%
TGI (average tumor volume) ([1]; 100 mg/kg i.g. daily, Day −1): −89%
Average volume of new tumors, % less than that of the control group ([1]; 100 mg/kg i.g. daily, end of observation): 39%
Absolute number of new tumors ([1]; 100 mg/kg i.g. daily, end of study): 25
Frequency of tumor stabilizations ([1]; 100 mg/kg i.g. daily, end of study, volume not increased by more than 20%): 16%
Average volume of new tumors at the end of the observation period (M) ([1]; 100 mg/kg i.g. daily, listed as medicament): 0.20±0.05 cm^3 and 0.20 cm^3
Tumor growth inhibition compared to Tamoxifen ([1]; FVB mice transgenic for HER-2/neu with breast tumors): inhibits tumor growth to the same extent as clinically approved Tamoxifen
Signs of toxic damage to the internal organs at autopsy ([1]; end of the experiment, 27-28 days of administration): No specific signs of toxic damage to the internal organs were detected
IC50 [2]: 4.8 µM
Action compared to Tamoxifen and Letrozole [3]: better action
LD50 at 14 days [4]: ≥ 5000 mg/kg
Lethal effects (dead/total) ([5]; 300 mg/kg single i.g. dose): 0/6
Body weight, average ([5]; 300 mg/kg single i.g. dose, Day 1 (before administration)): 28.7 g
Body weight, individual mice ([5]; 300 mg/kg single i.g. dose, Day 1 (before administration), listed as medicament): 26.4 and 28.2 and 30.0 and 29.0 (2×) and 29.5
Body weight, average ([5]; 300 mg/kg single i.g. dose, Day 2): 28.8 g
Body weight, individual mice ([5]; 300 mg/kg single i.g. dose, Day 2, listed as medicament, in g (unit assumed)): 26.4 and 28.0 and 30.8 and 29.6 and 28.6 and 29.2
Body weight, average ([5]; 300 mg/kg single i.g. dose, Day 7): 29.6 g
Body weight, individual mice ([5]; 300 mg/kg single i.g. dose, Day 7, listed as medicament, in g (unit assumed)): 27.0 and 28.4 and 30.8 and 31.2 and 30.4 and 29.6
Body weight, average ([5]; 300 mg/kg single i.g. dose, Day 14): 29.6 g
Body weight, individual mice ([5]; 300 mg/kg single i.g. dose, Day 14, listed as medicament, in g (unit assumed)): 27.2 and 28.6 and 30.3 and 31.0 and 30.6 and 29.8
Lethal effects (dead/total) ([5]; 300 mg/kg single i.g. dose, listed as medicament): no animals deaths
Average body weight, % from baseline ([5]; 300 mg/kg, Day 2): (0) %
Average body weight, % from baseline ([5]; 300 mg/kg, Day 7): (3) %
Average body weight, % from baseline ([5]; 300 mg/kg, Day 14): (3) %
Visual signs of intoxication ([5]; 300 mg/kg, entire observation period): None of the animals exhibited visual signs of intoxication
Clinical signs of intoxication ([5]; 2000 mg/kg): No clinical signs of intoxication were observed
Lethal effects (dead/total) ([5]; 2000 mg/kg i.g.): 0/6
Body weight, average ([5]; 2000 mg/kg i.g., Day 2): 26.3 g
Body weight, average ([5]; 2000 mg/kg i.g., Day 7): 25.9 g
Body weight, average ([5]; 2000 mg/kg i.g., Day 14): 27.2 g
Average body weight, % from baseline ([5]; 2000 mg/kg, Day 2): (−3) %
Average body weight, % from baseline ([5]; 2000 mg/kg, Day 7): (−4) %
Decrease of body weight from the initial weight ([5]; 2000 mg/kg, Day 7): 4%
Average body weight, % from baseline ([5]; 2000 mg/kg, Day 14): (0) %
Macroscopic changes of the internal organs at autopsy ([5]; Day 15): no changes of the internal organs were detected

From patent US20220106282A1, “TREATMENT FOR BREAST CANCER, INCLUDING TRIPLE-NEGATIVE BREAST CANCER” (priority 2018, published 2022)
